Values of other authors as cited in patent US20060234297A1, “Screening method” (priority 2003, published 2006).

Tests used:
[1] = system: mouse macrophages stimulated with phorbol ester or tumor necrosis factor (TNF-α)
[2] = system: progression of arteriosclerosis; details: clinical study

## CCOC(=O)C1=C(C)NC(C)=C(C(=O)OCC)C1c1ccccc1/C=C/C(=O)OC(C)(C)C [lacidipine]
[1]
  MMP-9 secretion and production: suppressed MMP-9 secretion and production
[2]
  effect on the progression of arteriosclerosis: suppressive effect on the progression of arteriosclerosis
